Laboratory results: patent publication US20200147149A1, “COMPOSITIONS AND METHODS FOR THE MODULATION OF GUT SENSORY CELLS” (Duke University, priority 2017, published 2020)
“Also recorded” adds a separate entry of the source.

System: vagus nerve
Assay: Vagus nerve recording during intraluminal (duodenal) nutrient or CCK perfusion
Assay type: in vivo, mouse
Conditions: D-glucose 150 mM perfused intraluminally, wild-type mice
Method: Wild-type control (n=5-9), CckCRE_ChR2-tdTomato (n=6), CckCRE_Halorhodopsin-YFP (n=5), and Vglut1CRE_ChR2-YFP (n=6) mice were used for vagal recordings. Mice were anesthetized with 3 mg/g-mouse urethane 1 hour before surgery then with 0.5-1% isoflurane. A section of neck skin was removed between the jaw and clavicle. The thyroid was reflected bilaterally, and the carotid bundle was exposed using coarse dissection. The carotid nerve was separated from the vagus nerve using a curved blunt probe. Two platinum iridium wires (0.001″ diameter, PTFE coated, 10% Ir 90% Pt; Medwire by Sigmund Cohn Corp) were looped around the vagus nerve for recording. Mineral oil was used to insulate the vagus nerve from surrounding tissue. The small intestine was exposed by removing a section of skin and peritoneum. A 20 gauge gavage needle was surgically inserted through the stomach wall and into the duodenum. The gavage needle was sutured in place beyond the pyloric sphincter. Saline and stimulant tubes were connected to the gavage needle. For optogenetic experiments, a fiber optic cable (FT020, ThorLabs) was threaded through the gavage needle into the lumen of the duodenum. A perfusion exit incision was made 10 cm distal to the pyloric sphincter. During each recording, PBS was constantly perfused through the duodenum using a peristaltic pump (Cole-Parmer) at the lowest setting for a flow rate of ˜400 uL PBS per minute. Stimulation conditions were applied after recording 2 minutes of baseline activity. During whole nutrient stimulation conditions, PBS perfusion was continuous and 200 μL of ENSURE® was perfused through the second tube for 1 minute using a syringe pump. […] During CCK stimulation conditions, PBS perfusion was continuous, and 200 μL of 2.9 μM CCK octapeptide-sulfated (BaChem) was perfused through the second tube for 1 minute using a syringe pump (Fusion 200, Chemyx) for a final concentration of ˜870 nM CCK in PBS (10 μg/kg dose). […] Final stimulant concentrations were determined using the ratio of dilution and confirmed by osmolarity testing (Model 3320 Osmometer, Advanced Instruments Inc.). During 473 nm laser stimulation conditions, PBS perfusion was continuous, and the laser was pulsed for 1 minute at 40 Hz, 4 volts peak voltage, 20% duty cycle (473 nm, 80 mW laser, RGBlase).
Extracellular voltage was recorded from a pair of platinum iridium wires as described above. A differential amplifier and bandpass filter (1000× gain, 300 Hz-5 kHz bandpass filter; A-M Systems LLC) was used and the signal was processed using a data acquisition board and software (20 kHz sampling rate; Signal Express, National Instruments Corp). The raw data was analyzed using a spike sorting algorithm (MATLAB by MathWorks). Spikes were detected using simple threshold detection based on RMS noise. The firing rate was calculated using a Gaussian kernel smoothing algorithm (200-ms time scale).
Stimulation response was quantified as the maximum firing rate after stimulation (stimulant conditions) or during recording (baseline). Each trial serves as its own control by normalizing the maximum firing rate to the average baseline firing rate (defined as the first two minutes of recording, prior to stimulation onset). Mice were excluded from analysis if no sucrose response was present throughout recording. Maximum firing rate was analyzed across genotype, stimulation condition, and their interaction term by ANOVA, followed by HSD post hoc testing (iMP by SAS Institute).

O=C[C@H](O)[C@@H](O)[C@H](O)[C@H](O)CO [D-glucose]
vagal firing rate: had the same effect; also recorded: stimulate
